Measurements taken from patent US10407395B2, “Benzimidazole compound and medical use thereof” (Sumitomo Dainippon Pharma Co., Ltd., priority 2015, dated 2019).

Target: human SCN9A (Nav 1.7) (Homo sapiens, UniProt Q15858)
Assay: Measurement of Na ion current (Nav 1.7) by automated patch clamp assay in cells stably-expressing human SCN9A
Assay type: cell-based
Settings: compound concentration 10 μmol/L; holding potential inactivating 50% Nav 1.7 channel (around −60 mV); read-out: Inhibitory rate (%) of Na ion current
Experimental: Measurement of Na Ion Current in Voltage-Dependent Na Channel Gene Expressed Cell Nav 1.7 current was measured by automated patch clamp assay using cells stably-expressing human SCN9A. Cells Stably-expressing Human SCN9A Tetracycline-induced cells stably-expressing SCN9A were obtained from ChanTest Corporation. […] Next day, the Na ion current was measured by automated patch clamp assay. Electrophysiologic Measurement of Na Ion Current The Na ion current was measured by automated patch clamp assay using the following extracellular solution and intracellular solution. […] The control of the stimulating pulse and the data acquisition were carried out using EPC10 amplifier and Patch Master Software (HEKA). Data were sampled at 10 kHz, and low-pass filtered at 3 kHz. All the measurements were carried out at room temperature. […] The inhibitory rate of the Na ion current by the test compounds was calculated according to the following calculating formula with the peak current value generated by the depolarizing pulse. […] The inhibitory rate of Na ion current by each Example Compound was evaluated.

Sequence of human SCN9A (Nav 1.7) (Q15858 whole entry): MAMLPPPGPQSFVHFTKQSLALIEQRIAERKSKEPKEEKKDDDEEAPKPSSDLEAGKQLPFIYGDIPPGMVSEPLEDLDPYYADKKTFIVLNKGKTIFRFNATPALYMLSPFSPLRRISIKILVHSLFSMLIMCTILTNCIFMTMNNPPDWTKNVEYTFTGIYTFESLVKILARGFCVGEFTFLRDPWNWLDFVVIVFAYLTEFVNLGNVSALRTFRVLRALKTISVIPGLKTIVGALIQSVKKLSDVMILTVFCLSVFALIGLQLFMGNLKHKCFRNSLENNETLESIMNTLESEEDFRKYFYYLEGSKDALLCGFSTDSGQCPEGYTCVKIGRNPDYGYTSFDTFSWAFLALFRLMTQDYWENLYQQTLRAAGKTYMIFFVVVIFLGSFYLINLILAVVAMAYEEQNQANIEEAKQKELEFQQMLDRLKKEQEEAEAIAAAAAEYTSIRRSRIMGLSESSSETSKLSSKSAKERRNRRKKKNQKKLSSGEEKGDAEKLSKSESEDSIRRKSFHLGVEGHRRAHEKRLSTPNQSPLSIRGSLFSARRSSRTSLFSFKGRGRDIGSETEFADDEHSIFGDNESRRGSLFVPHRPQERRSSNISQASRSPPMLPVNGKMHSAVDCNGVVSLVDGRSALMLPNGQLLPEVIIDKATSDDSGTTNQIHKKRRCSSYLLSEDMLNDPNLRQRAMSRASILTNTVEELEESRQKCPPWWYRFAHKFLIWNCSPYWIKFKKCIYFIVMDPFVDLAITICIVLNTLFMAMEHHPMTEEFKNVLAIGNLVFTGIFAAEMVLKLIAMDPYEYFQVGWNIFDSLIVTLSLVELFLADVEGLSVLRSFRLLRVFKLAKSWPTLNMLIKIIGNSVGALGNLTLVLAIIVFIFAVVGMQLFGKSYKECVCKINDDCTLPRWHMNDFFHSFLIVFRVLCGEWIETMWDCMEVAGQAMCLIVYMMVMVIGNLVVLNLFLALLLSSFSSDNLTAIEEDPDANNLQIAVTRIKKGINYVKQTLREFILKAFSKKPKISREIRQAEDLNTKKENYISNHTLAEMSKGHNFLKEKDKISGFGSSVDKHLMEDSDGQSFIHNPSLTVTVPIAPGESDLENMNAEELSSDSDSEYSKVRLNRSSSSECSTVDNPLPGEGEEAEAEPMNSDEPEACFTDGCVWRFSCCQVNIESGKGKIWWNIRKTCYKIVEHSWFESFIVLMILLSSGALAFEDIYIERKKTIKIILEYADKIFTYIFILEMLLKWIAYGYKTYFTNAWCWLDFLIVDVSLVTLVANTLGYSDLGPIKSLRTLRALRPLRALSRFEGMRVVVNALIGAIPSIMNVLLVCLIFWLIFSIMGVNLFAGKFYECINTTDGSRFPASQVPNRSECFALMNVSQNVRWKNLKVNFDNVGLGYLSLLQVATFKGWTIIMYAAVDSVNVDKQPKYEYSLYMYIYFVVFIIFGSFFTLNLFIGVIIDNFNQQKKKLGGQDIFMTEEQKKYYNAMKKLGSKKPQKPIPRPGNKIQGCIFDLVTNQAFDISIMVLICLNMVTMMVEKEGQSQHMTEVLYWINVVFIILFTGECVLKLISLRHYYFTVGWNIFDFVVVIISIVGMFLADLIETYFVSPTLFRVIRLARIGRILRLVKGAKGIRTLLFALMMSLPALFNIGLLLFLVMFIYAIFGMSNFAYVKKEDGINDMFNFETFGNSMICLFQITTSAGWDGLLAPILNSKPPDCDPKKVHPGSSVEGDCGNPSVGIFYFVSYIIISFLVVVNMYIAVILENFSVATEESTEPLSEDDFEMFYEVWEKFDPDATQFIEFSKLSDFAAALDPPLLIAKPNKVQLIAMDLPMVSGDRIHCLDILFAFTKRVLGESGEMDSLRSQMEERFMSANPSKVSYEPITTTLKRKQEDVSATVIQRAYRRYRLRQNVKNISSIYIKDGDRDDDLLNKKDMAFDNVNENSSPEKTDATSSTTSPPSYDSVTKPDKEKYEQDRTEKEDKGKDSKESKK

Row | SMILES | inhibition at 10 µM [%]
1 | CC(C)(O)Cn1cnc2ccc(Oc3ccccc3)cc21 [Example 13, 2-methyl-1-(6-phenoxy-1H-benzimidazol-1-yl)propan-2-ol] | 25
2 | CC(C)(O)Cn1cnc2ccc(Oc3ccc(C(F)(F)F)cc3)cc21 [Example 15, 2-methyl-1-{6-[4-(trifluoromethyl)phenoxy]-1H-benzimidazol-1-yl}propan-2-ol] | 57
3 | CC(C)(O)Cn1cnc2ccc(Oc3ccc(OC(F)(F)F)cc3)cc21 [Example 22, 2-methyl-1-{6-[4-(trifluoromethoxy)phenoxy]-1H-benzimidazol-1-yl}propan-2-ol] | 73
4 | Cc1ccc(Oc2ccc3ncn(CC(C)(C)O)c3c2)cn1 [Example 24, 2-methyl-1-{6-[(6-methylpyridin-3-yl)oxy]-1H-benzimidazol-1-yl}propan-2-ol] | 56
5 | CC(C)(O)Cn1cnc2ccc(Oc3ccc(C(F)(F)F)nc3)cc21 [Example 25, 2-methyl-1-(6-{[6-(trifluoromethyl)pyridin-3-yl]oxy}-1H-benzimidazol-1-yl)propan-2-ol] | 72
6 | CC(C)(O)Cn1cnc2cc(Oc3cccc(C(F)(F)F)n3)ccc21 [Example 43, 2-methyl-1-(5-{[6-(trifluoromethyl)pyridin-2-yl]oxy}-1H-benzimidazol-1-yl)propan-2-ol] | 20
7 | CC(C)(O)Cn1cnc2cc(Oc3cnc(C(F)(F)F)cn3)ccc21 [Example 51, 2-methyl-1-(5-{[5-(trifluoromethyl)pyrazin-2-yl]oxy}-1H-benzimidazol-1-yl)propan-2-ol] | 44

Continued, values first:

Row | inhibition at 10 µM [%] | SMILES
8 | 85 | Fc1ccc(Oc2ccc3ncn(CC4CCCO4)c3c2)cc1 (stereo not shown) [Example 2, 6-(4-fluorophenoxy)-1-(tetrahydrofuran-2-ylmethyl)-1H-benzimidazole]
9 | 65 | CC(C)OCCn1cnc2ccc(Oc3ccc(F)cc3)cc21 [Example 3, 6-(4-fluorophenoxy)-1-[2-(propan-2-yloxy)ethyl]-1H-benzimidazole]
10 | 52 | Fc1ccc(Oc2ccc3ncn(CCOC4CCCC4)c3c2)cc1 [Example 4, 1-[2-(cyclopentyloxy)ethyl]-6-(4-fluorophenoxy)-1H-benzimidazole]
11 | 39 | CC(C)(O)Cn1cnc2ccc(-c3ccc(F)cc3)cc21 [Example 5, 1-[6-(4-fluorophenyl)-1H-benzimidazol-1-yl]-2-methylpropan-2-ol]
12 | 41 | Fc1ccc(-c2ccc3ncn(CC4CCCO4)c3c2)cc1 (stereo not shown) [Example 6]
13 | 67 | FC(F)(F)c1ccc(-c2ccc3ncn(CC4CCCO4)c3c2)cc1 (stereo not shown) [Example 7, 1-(tetrahydrofuran-2-ylmethyl)-6-[4-(trifluoromethyl)phenyl]-1H-benzimidazole]
14 | 32 | FC(F)(F)c1ccc(-c2ccc3ncn(CC4CCCO4)c3c2)nc1 (stereo not shown) [Example 8]
15 | 77 | CC(C)(O)Cn1cnc2ccc(-c3ccc(C(F)(F)F)cc3)cc21 [Example 9, 2-methyl-1-{6-[4-(trifluoromethyl)phenyl]-1H-benzimidazol-1-yl}propan-2-ol]
16 | 52 | FC(F)(F)c1ccc(-c2ccc3ncn(CCOC4CCCC4)c3c2)cc1 [Example 10, 1-[2-(cyclopentyloxy)ethyl]-6-[4-(trifluoromethyl)phenyl]-1H-benzimidazole]
17 | 75 | CC(C)(O)Cn1cnc2ccc(-c3ccc(C(F)(F)F)cn3)cc21 [Example 11, 2-methyl-1-{6-[5-(trifluoromethyl)pyridin-2-yl]-1H-benzimidazol-1-yl}propan-2-ol]
18 | 58 | FC(F)(F)c1ccc(-c2ccc3ncn(CCOC4CCCC4)c3c2)nc1 [Example 12, 1-[2-(cyclopentyloxy)ethyl]-6-[5-(trifluoromethyl)pyridin-2-yl]-1H-benzimidazole]

Same assay, conditions: read-out: Inhibitory rate (%) of Na ion current

Row | SMILES | inhibition at 10 µM [%]
19 | Cc1ccc(Oc2ccc3ncn(CC(C)(C)O)c3c2)cc1 [Example 14, 2-methyl-1-[6-(4-methylphenoxy)-1H-benzimidazol-1-yl]propan-2-ol] | 68
